Experimental data published in patent US20250186439A1, “PYK2 INHIBITION MODULATES IMMUNE CELL FUNCTION” (The Children's Medical Center Corporation, priority 2022, published 2025).
“Also recorded” adds a separate entry of the source.

How the values were obtained:
Assay type in all cases: cell-based, mouse
[1] = tested on: MG6 cells; test: Multinucleation of MG6 microglia (DAPI, Iba1 staining)
Experimental: FIGS. 4A-4E. Induction of multinucleated cells by a Pyk2 inhibitor. FIG. 4A: Microscopic images depicting the effect of a Pyk2 inhibitor on the morphology of MG6 cells. MG6 cell line is established with neonatal C57BL/6 mouse microglia that are collected from whole brain and transformed with c-myc oncogene. MG6 cells were stimulated with 100 ng/mL CSF-1 for 48 hours and then cultured for 24 hours with various concentrations of Pyk2 inhibitor: 0 nM, 100 nM, 500 nM and 1000 nM. FIG. 4B: Quantification of the effect of a Pyk2 inhibitor on the proliferation of MG6 cells. MG6 cells were stimulated with CSF-1 and cultured with various concentrations of Pyk2 inhibitor as in FIG. 4A. The baseline proliferation rate is defined as 100 ng/mL CSF-1 treatment for 48 hours. Proliferation of MG6 cells with various concertation of Pyk2 inhibitor treatment is measured using a Cell Counter Kit for 4 hours of incubation. No difference in MG6 cell proliferation is observed at the Pyk2 inhibitor concentration of 100 nM. […] FIG. 4C: Microscopic images depicting multinucleated MG6 cells with 24 hours of 1000 nM Pyk2 inhibitor treatment following 48 hours of 100 ng/mL CSF-1 treatment. […] Multinucleated cells with two or more nuclei are observed as marked with circles in the bottom image. FIG. 4D: Quantification of the proportion of multinucleated cells after 0 nM, 500 nM, and 1000 nM Pyk2 inhibitor treatment. MG6 cells were treated with Pyk2 inhibitor for 24 hours after 48 hours of 100 ng/mL CSF-1 treatment. […] FIG. 4E: Immunohistochemical staining depicting multinucleation of Pyk2 inhibitor treated microglia. MG6 cells were stained with anti-Tubulin and anti-Iba1, while nuclei were stained with DAPI. Cells were observed via confocal microscopy (×600). MG6 cells were treated without Pyk2 inhibitor (left) or with 1000 nM Pyk2 inhibitor (right) after 48 hours of 100 ng/mL CSF-1 treatment. Scale bar is 20 μm. […]
To further assess the function of Pyk2 during neurodegenerative disorders, such as AD, the effect of Pyk2 inhibition was assessed in a microglial cell line. […]

[2] = tested on: MG6 cells; test: Phagocytosis of Hilite-555 labelled Aβ42 by MG6 cells; details: 24 h inhibitor, Hilite-555 labelled Aβ42 500 ng/mL; listed as Pyk2 inhibitor
Experimental: FIGS. 5A-5D. Characteristics of Pyk2 inhibition on phagocytotic activity in microglia. FIG. 5A: Immunofluorescent imaging depicting phagocytosis of pHrodo Red E. coli BioParticles by MG6 cells after exposure to Pyk2 inhibitors. MG6 cells were either untreated (left) or treated with 1000 nM Pyk2 inhibitor treatment for 24 hours (right). Immunofluorescent images were obtained via confocal microscopy (×600). MG6 cells were fixed and stained with phalloidin-AlexaFluor488 to visualize actin, and with DAPI to visualize nuclei (encircled). Scale bar is 20 μm. […] FIG. 5B: Immunofluorescent imaging depicting phagocytosis of pHrodo Red E. coli BioParticles by mononucleated and multinucleated MG6 cells after exposure to Pyk2 inhibitors. MG6 cells were treated and imaged as in FIG. 5A. After obtaining three-dimensional images, BioParticles are quantified by a spot analysis using IMARIS software (bottom figures). FIG. 5C: Quantification of spot analysis in FIG. 5B. The output of IMARIS spot analysis was analyzed using one-way ANOVA. […] FIG. 5D: Phagocytotic activity for Aβ in MG6 cells. Immunostaining for Iba1 and Aβ in control and Pyk2 inhibitor treated group. MG6 cells were treated with Pyk2 inhibitor or vehicle for 24 hours and then Hilite-555 labelled Aβ42 was added for 24 hours. Data are representative images of four wells from three independent experiments. […]

[3] = tested on: IL-6, IL-1β, IL-10, and TGF-β mRNA; test: Cytokine/chemokine mRNA levels (qPCR) in sorted MG6 cells; details: qPCR after inhibitor treatment
Experimental: FIGS. 7A-7D. Pyk2 inhibition promotes the phagocytotic activity and inflammatory responses in microglia. FIG. 7A: Quantification of the effect of Pyk2 inhibitor treatment on proliferation of mononucleated and multinucleated MG6 cells. MG6 cells were pretreated with 1000 nM Pyk2 inhibitor for 24 hours and mono-/multi-nuclear cells were isolated and collected by fluorescent activated cell sorting. […] There is no difference in proliferation of mononuclear cells after Pyk2 inhibitor treatment compared to untreated control cells. FIG. 7B: Fluorescent imaging depicting the effect of Pyk2 inhibitor on phagocytosis of mononucleated and multinucleated MG6 cells. MG6 cells were pretreated with 1000 nM Pyk2 inhibitor for 24 hours and mono-/multi-nuclear cells were isolated and collected by fluorescent activated cell sorting. After sorting, cells were treated with pHrodo Red E. coli BioParticles. Representative images are shown at ×20 magnification level. FIG. 7C: Quantification of phagocytosis of mononucleated and multinucleated MG6 cells over time. After Pyk2 inhibitor treatment and cell sorting, MG6 cells were treated with pHrodo Red E. coli BioParticles for the indicated time. Fluorescence intensity was measured by fluorescence microplate reader at excitation/emission wavelengths of 560/580 nm. […] FIG. 7D: Quantification of the effect of Pyk2 inhibitor treatment on cytokine/chemokine levels of mononucleated and multinucleated MG6 cells. The relative mRNA levels of IL-6, IL-1β, IL-10, and TGF-β were measured by a real-time PCR (qPCR). Measured mRNA transcript levels are reported as the mean level±standard deviation (n=3; *: p-value<0.05; **: p-value <0.01; ***: p-value <0.005; ****: p-value <0.001; and *****: p-value <0.0005).
Next, the differences in the activity of mononucleated and multinucleated microglial cells in response to Pyk2 inhibition was further assessed. […] Mononucleated and multinucleated MG6 cells also differed regarding the cytokines and chemokines produced by each (FIG. 7D).

CN(c1ccccc1CNc1nc(Nc2ccc3c(c2)CC(=O)N3)ncc1C(F)(F)F)S(C)(=O)=O [PF-431396]
multinucleation of MG6 cells ([1]; 500 nM, 24 h after 48 h CSF-1): insufficient to induce multinucleation
level of Iba1 in cytoplasm of multinucleated MG6 cells ([1]; 1000 nM): increased level
multinucleation of MG6 cells / proportion of multinucleated cells ([1]; 1000 nM, 24 h after 48 h CSF-1, listed as Pyk2 inhibitor): multinucleation of MG6 cells was observed; also recorded: significantly increased
phagocytosis of Aβ42 [2]: increased phagocytosis; also recorded: significantly higher
IL-1β expression, mononucleated MG6 cells [3]: increased expression
IL-1β expression, multinucleated MG6 cells [3]: did not
IL-6 expression, mononucleated MG6 cells [3]: increased expression
IL-6 expression, multinucleated MG6 cells [3]: did not
IL-10, mononucleated MG6 cells [3]: reduction
IL-10, multinucleated MG6 cells [3]: reduction
TGF-β expression, multinucleated MG6 cells [3]: increase
